# Measured values published in ChEMBL document CHEMBL5620419, “Discovery of new Lenalidomide derivatives as potent and selective GSPT1 degraders” (Eur J Med Chem, 2023).
# Calls of active or inactive are those of the source. The calls are words filed in the database; no cut-off is given here.
# Tests used:
# [1] = target: Protein cereblon/Eukaryotic peptide chain release factor GTP-binding subunit ERF3A (Homo sapiens, UniProt P15170+Q96SW2); assay: (§1) PROTAC activity at CRBN/GSPT1 in human U-937 cells assessed as degradation of GSPT1 measured after 6 hrs by Western blot analysis; type: cell-based
# Sequence of Protein cereblon/Eukaryotic peptide chain release factor GTP-binding subunit ERF3A (Q96SW2 whole entry): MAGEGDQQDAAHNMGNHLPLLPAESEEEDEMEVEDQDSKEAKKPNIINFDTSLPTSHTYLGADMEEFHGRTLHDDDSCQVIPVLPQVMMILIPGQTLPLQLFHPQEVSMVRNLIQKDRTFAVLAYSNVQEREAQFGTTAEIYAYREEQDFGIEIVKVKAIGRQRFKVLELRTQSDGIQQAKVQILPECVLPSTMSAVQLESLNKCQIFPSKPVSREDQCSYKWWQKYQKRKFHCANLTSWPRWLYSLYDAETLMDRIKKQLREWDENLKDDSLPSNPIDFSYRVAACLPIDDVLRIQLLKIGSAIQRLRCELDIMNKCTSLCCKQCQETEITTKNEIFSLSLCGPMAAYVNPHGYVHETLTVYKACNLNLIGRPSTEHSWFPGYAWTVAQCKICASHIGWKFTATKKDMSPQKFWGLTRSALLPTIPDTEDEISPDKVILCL
# Sequence of Protein cereblon/Eukaryotic peptide chain release factor GTP-binding subunit ERF3A (P15170 whole entry): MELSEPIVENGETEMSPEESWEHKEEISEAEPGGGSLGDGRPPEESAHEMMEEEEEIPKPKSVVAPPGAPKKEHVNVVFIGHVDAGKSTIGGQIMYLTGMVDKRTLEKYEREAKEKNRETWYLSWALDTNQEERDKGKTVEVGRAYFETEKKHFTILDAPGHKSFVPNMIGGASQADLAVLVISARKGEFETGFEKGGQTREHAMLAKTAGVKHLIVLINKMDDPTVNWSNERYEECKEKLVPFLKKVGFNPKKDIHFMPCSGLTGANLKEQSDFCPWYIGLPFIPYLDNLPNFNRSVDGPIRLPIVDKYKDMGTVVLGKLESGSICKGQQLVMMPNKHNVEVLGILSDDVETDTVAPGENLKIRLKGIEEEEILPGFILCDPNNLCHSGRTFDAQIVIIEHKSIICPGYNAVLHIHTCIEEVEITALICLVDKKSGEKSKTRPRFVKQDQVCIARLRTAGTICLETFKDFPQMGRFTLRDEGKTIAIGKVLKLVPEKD
# [2] = target: T1, Protein cereblon/Eukaryotic peptide chain release factor GTP-binding subunit ERF3A (Homo sapiens) (UniProt Q96SW2+P15170); assay: as §1; type: cell-based; conditions: dose <= 300.0 nM
# T1 sequence (P15170 whole entry, looked up): as the sequence (P15170 whole entry) above
# T1 sequence (Q96SW2 whole entry, looked up): as the sequence (Q96SW2 whole entry) above
# [3] = target: T1, Protein cereblon/Eukaryotic peptide chain release factor GTP-binding subunit ERF3A (Homo sapiens); assay: PROTAC activity at CRBN/GSPT1 in human U-937 cells assessed as increase in ubiquitination of GSPT1 at 100 nM preincubated with MG-132 for 2 hrs followed by compound treatment and measured after 24 hrs by coimmunoprecipitation analysis; type: cell-based
# U-937 [4] = assay: Induction of apoptosis in human U-937 cells assessed as viable cells at 100 nM measured after 24 hr by Annexin V-FITC/7AAD staining based flow cytometry (reference value: 93.55%); type: functional; conditions: read-out: Activity
# [5] = target: T1, Protein cereblon/Eukaryotic peptide chain release factor GTP-binding subunit ERF3A (Homo sapiens); assay: PROTAC activity at CRBN/GSPT1 in human U-937 cells assessed as degradation of GSPT1 at 100 nM measured after 4 to 24 hrs by Western blot analysis; type: cell-based; conditions: time 4-24 hrs
# [6] = target: Cereblon/Casein kinase I alpha (Homo sapiens) (UniProt P48729+Q96SW2); assay: PROTAC activity at CRBN/CK1alpha in human U-937 cells at upto 300 nM by Western blot analysis; type: cell-based
# Sequence of Cereblon/Casein kinase I alpha (Homo sapiens) (P48729 2-337 limits assumed): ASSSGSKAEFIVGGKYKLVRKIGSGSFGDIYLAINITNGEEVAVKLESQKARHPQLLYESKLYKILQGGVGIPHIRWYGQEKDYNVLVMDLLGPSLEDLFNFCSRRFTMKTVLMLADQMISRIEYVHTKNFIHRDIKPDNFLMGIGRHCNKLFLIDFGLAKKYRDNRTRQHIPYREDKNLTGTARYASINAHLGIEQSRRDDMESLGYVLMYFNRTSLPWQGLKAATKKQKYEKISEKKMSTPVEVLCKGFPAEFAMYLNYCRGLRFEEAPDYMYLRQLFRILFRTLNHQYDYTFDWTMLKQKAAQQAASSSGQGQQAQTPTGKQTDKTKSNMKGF
# Sequence of Cereblon/Casein kinase I alpha (Homo sapiens) (Q96SW2 whole entry partner): as the sequence (Q96SW2 whole entry) above
# U-937 [7] = assay: Induction of apoptosis in human U-937 cells assessed as early apoptotic cells at 100 nM measured after 24 hr by Annexin V-FITC/7AAD staining based flow cytometry (reference value: 1.44%); type: functional
# [8] = target: T1, Protein cereblon/Eukaryotic peptide chain release factor GTP-binding subunit ERF3A (Homo sapiens); assay: PROTAC activity at CRBN/GSPT1 in human MV4-11 cells assessed as degradation of GSPT1 at upto 300 nM by Western blot analysis; type: cell-based
# U-937 [9] = assay: Induction of apoptosis in human U-937 cells assessed as early apoptotic cells at 30 nM measured after 24 hr by Annexin V-FITC/7AAD staining based flow cytometry (reference value: 1.44%); type: functional
# [10] = Half life in ip dosed Sprague-Dawley rat; type: ADME, organism-based; conditions: in vivo
# [11] = Cmax in oral dosed Sprague-Dawley rat; type: ADME, organism-based; conditions: in vivo
# U-937 [12] = assay: Downregulation of CDK6 level in human U-937 cells measured after 24 hrs by Western blot analysis; type: functional, cell-based; conditions: dose 10-100 nM
# [13] = Cmax in ip dosed Sprague-Dawley rat; type: ADME, organism-based; conditions: in vivo
# U-937 [14] = assay: Induction of cell cycle arrest in human U-937 cells assessed as accumulation of cells at G0/G1 phase at 30 nM measured after 24 hrs by propidium iodide staining based flow cytometry analysis (reference value: 61.09%); type: functional
# [15] = target: T1, Protein cereblon/Eukaryotic peptide chain release factor GTP-binding subunit ERF3A (Homo sapiens); assay: PROTAC activity at CRBN/GSPT1 in human U-937 cells assessed as induction of GSPT1 degradation preincubated with MG132 for 2 hrs followed by compound addition and measured after 6 hrs by Western blot analysis; type: cell-based
# [16] = Downregulation of TIM9 level in human U-937 cells assessed as fold change at 0.1 uM measured after 6 hrs; type: functional
# [17] = Downregulation of AIMP2 level in human U-937 cells assessed as fold change at 0.1 uM measured after 6 hrs; type: functional
# [18] = target: T1, Protein cereblon/Eukaryotic peptide chain release factor GTP-binding subunit ERF3A (Homo sapiens); assay: PROTAC activity at CRBN/GSPT1 in human U-937 cells assessed as half life measured upto 24 hrs in presence of cycloheximide by Western blot analysis; type: cell-based
# [19] = AUC (0 to t) in oral dosed Sprague-Dawley rat; type: ADME, organism-based; conditions: in vivo
# [20] = Downregulation of SCAM2 level in human U-937 cells assessed as fold change at 0.1 uM measured after 6 hrs; type: functional
# U-937 [21] = assay: Induction of apoptosis in human U-937 cells assessed as late apoptotic cells at 10 nM measured after 24 hr by Annexin V-FITC/7AAD staining based flow cytometry (reference value: 1.49%); type: functional
# [22] = target: Protein cereblon/Zinc finger protein Aiolos (Homo sapiens) (UniProt Q96SW2+Q9UKT9); assay: PROTAC activity at CRBN/IKZF3 in human U-937 cells at upto 300 nM; type: cell-based
# Sequence of Protein cereblon/Zinc finger protein Aiolos (Homo sapiens) (Q96SW2 whole entry, looked up): as the sequence (Q96SW2 whole entry) above
# Sequence of Protein cereblon/Zinc finger protein Aiolos (Homo sapiens) (Q9UKT9 whole entry, looked up): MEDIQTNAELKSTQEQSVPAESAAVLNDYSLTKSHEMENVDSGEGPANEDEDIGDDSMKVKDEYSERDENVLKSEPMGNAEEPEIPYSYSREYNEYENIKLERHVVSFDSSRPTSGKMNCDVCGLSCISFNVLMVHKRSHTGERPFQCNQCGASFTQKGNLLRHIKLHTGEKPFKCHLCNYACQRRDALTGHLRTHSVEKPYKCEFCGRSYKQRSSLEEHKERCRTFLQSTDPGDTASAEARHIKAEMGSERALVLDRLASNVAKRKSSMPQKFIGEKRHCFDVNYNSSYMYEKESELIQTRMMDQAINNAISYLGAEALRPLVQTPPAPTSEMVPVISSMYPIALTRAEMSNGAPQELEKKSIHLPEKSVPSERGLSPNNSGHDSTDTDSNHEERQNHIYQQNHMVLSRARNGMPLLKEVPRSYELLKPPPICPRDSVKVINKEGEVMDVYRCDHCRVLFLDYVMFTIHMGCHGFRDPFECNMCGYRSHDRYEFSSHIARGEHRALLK
# U-937 [23] = assay: Induction of apoptosis in human U-937 cells assessed as late apoptotic cells at 100 nM measured after 24 hr by Annexin V-FITC/7AAD staining based flow cytometry (reference value: 1.49%); type: functional
# U-937 [24] = assay: Induction of cell cycle arrest in human U-937 cells assessed as accumulation of cells at S phase at 100 nM measured after 24 hrs by propidium iodide staining based flow cytometry analysis (reference value: 6.38%); type: functional
# [25] = target: T1, Protein cereblon/Eukaryotic peptide chain release factor GTP-binding subunit ERF3A (Homo sapiens); assay: PROTAC activity at CRBN/GSPT1 in human U-937 cells assessed as degradation of GSPT1 at 300 nM measured after 6 hrs by Western blot analysis relative to control; type: cell-based
# U-937 [26] = assay: Induction of apoptosis in human U-937 cells assessed as necrotic cells at 30 nM measured after 24 hr by Annexin V-FITC/7AAD staining based flow cytometry (reference value: 3.52%); type: functional
# U-937 [27] = assay: Induction of apoptosis in human U-937 cells assessed as viable cells at 10 nM measured after 24 hr by Annexin V-FITC/7AAD staining based flow cytometry (reference value: 93.55%); type: functional; conditions: read-out: Activity
# U-937 [28] = assay: Induction of cell cycle arrest in human U-937 cells assessed as accumulation of cells at S phase at 10 nM measured after 24 hrs by propidium iodide staining based flow cytometry analysis (reference value: 6.38%); type: functional
# [29] = target: T1, Protein cereblon/Eukaryotic peptide chain release factor GTP-binding subunit ERF3A (Homo sapiens); assay: PROTAC activity at CRBN/GSPT1 in human MOLT-4 cells assessed as degradation of GSPT1 at upto 300 nM by Western blot analysis; type: cell-based
# [30] = Downregulation of RNT2 level in human U-937 cells assessed as fold change at 0.1 uM measured after 6 hrs; type: functional
# U-937 [31] = assay: Induction of cell cycle arrest in human U-937 cells assessed as accumulation of cells at G0/G1 phase at 10 nM measured after 24 hrs by propidium iodide staining based flow cytometry analysis (reference value: 61.09%); type: functional
# U-937 [32] = assay: Induction of apoptosis in human U-937 cells assessed as necrotic cells at 100 nM measured after 24 hr by Annexin V-FITC/7AAD staining based flow cytometry (reference value: 3.52%); type: functional
# U-937 [33] = assay: Induction of cell cycle arrest in human U-937 cells assessed as accumulation of cells at G2/M phase at 30 nM measured after 24 hrs by propidium iodide staining based flow cytometry analysis (reference value: 32.33%); type: functional
# MOLT-4 = assay: Antiproliferative activity against human MOLT-4 cells measured after 72 hrs by CCK-8 method; type: functional, cell-based; conditions: MOLT-4, 72 h
# U-937 [34] = assay: Downregulation of cyclin B1 level in human U-937 cells measured after 24 hrs by Western blot analysis; type: functional, cell-based; conditions: dose 10-100 nM
# U-937 [35] = assay: Antiproliferative activity against human U-937 cells measured after 72 hrs by CCK-8 method; type: functional, cell-based; conditions: U-937, 72 h
# [36] = Downregulation of SRP72 level in human U-937 cells assessed as fold change at 0.1 uM measured after 6 hrs; type: functional
smiles,measurement,setting,value
COCCN(C)Cc1cc(NC(=O)CCc2ccc3c(c2)C(=O)N(C2CCC(=O)NC2=O)C3)cc(Cl)c1C (configuration not stated),EC50,[1],35 nM
same,Activity,[2],Dose-Dependent Effect
same,Activity,[3],Active
same,viability at 0.1 µM,U-937 [4],44.9%
same,Activity,[5],Active
same,Activity,[6],inactive
same,Activity,U-937 [7],23.01%
same,Activity,[8],Active
same,Activity,U-937 [9],14.2%
same,half-life,[10],1.25 h
same,Cmax,[11],671 ng/mL
same,Activity,U-937 [12],Dose-Dependent Effect
same,Cmax,[13],4270 ng/mL
same,Activity,U-937 [14],63.89%
same,Activity,[15],inactive
same,log(activity),[16],-3.32
same,log(activity),[17],-3.32
same,T1/2,[18],6.3 h
same,AUC(0-t),[19],1050 ng·h/mL
same,log(activity),[20],-3.32
same,Activity,U-937 [21],2.34%
same,Activity,[22],inactive
same,Activity,U-937 [23],27.48%
same,Activity,U-937 [24],6.73%
same,Emax,[25],81.7%
same,Activity,U-937 [26],5.84%
same,viability at 0.01 µM,U-937 [27],93.2%
same,Activity,U-937 [28],8.87%
same,Activity,[29],Active
same,log(activity),[30],-3.36
same,Activity,U-937 [31],50.22%
same,Activity,U-937 [32],5.5%
same,Activity,U-937 [33],26.07%
same,IC50,MOLT-4,6 nM
same,Activity,U-937 [34],Dose-Dependent Effect
same,IC50,U-937 [35],19 nM
same,log(activity),[36],-3.32
